{
  "source": "paper PMC9954146",
  "about": "“Anti-Leukaemic Activity of Rilpivirine Is Mediated by Aurora A Kinase Inhibition” (Cancers, 2023)",
  "key": {"[1]": {"system": "U-937 cells", "experiment": "Apoptosis, annexin V/PI double staining", "format": "cell-based, human", "conditions": "48 h", "procedure": "(§1) The cellular apoptosis was detected using annexin-V/PI double staining by following a method described previously. Briefly, cells were added in 6-well plates containing 3 mL of medium each well at 8 × 10^4 cells/well and incubated at 37 °C, 5% CO2. After overnight incubation, the test compounds were added to the cells and again incubated for desired time points. Then, the cells were collected in FACS tubes, washed with PBS and incubated with annexin V and PI solution for 15 min in the dark at room temperature. The apoptotic cell death was measured within 1 h using the same instrument and data processing software described for cell cycle analysis."}, "[2]": {"system": "HL-60 cells", "experiment": "Apoptosis, annexin V/PI double staining", "format": "cell-based, human", "conditions": "48 h", "procedure": "as §1"}, "[3]": {"system": "K-562 cells", "experiment": "Apoptosis, annexin V/PI double staining", "format": "cell-based, human", "conditions": "48 h", "procedure": "as §1"}, "[4]": {"system": "NB4 cells", "experiment": "Apoptosis, annexin V/PI double staining", "format": "cell-based, human", "conditions": "48 h", "procedure": "as §1"}, "[5]": {"system": "MV4-11 cells", "experiment": "Apoptosis, annexin V/PI double staining", "format": "cell-based, human", "conditions": "10 or 20 μM, 48 h; FLT3-ITD mutation", "procedure": "as §1"}, "[6]": {"system": "Aurora A kinase signalling pathway proteins in HL-60 and NB4 cells", "experiment": "Western blotting, concentration series", "format": "cell-based, human", "conditions": "24 h", "procedure": "(§2) Western blotting was performed following a method described previously. Briefly, 8 × 10^5 to 1 × 10^6 cells were seeded in petri dishes with 8 to 10 mL of culture medium and incubated overnight at 37 °C, 5% CO2. Then, the cells were treated with the test compounds and further incubated for the specified time point. Cells were then lysed using a lysis buffer containing protease inhibitors, and proteins were extracted by centrifugation. Protein concentrations were determined by using a Bio-Rad DC^TM protein assay kit (Bio-Rad Laboratories, Hercules, CA, USA). A total of 20–30 μg of proteins was loaded onto each well of 4–20% polyacrylamide gels for electrophoresis. Once electrophoresis was completed, gels were placed on pre-soaked polyvinylidene difluoride membranes and blocked with 10% skimmed milk in 1 × Tris-buffered saline and Tween (TBST). Then, the blots were incubated with primary antibodies, followed by washing with TBST for 4 × 20 min. After this, the blots were incubated with the appropriate horseradish peroxidase (HRP)-conjugated secondary antibody, followed by washing again with TBST for 4 × 20 min. The protein bands were then detected with either ECL prime (Amersham^TM ECL^TM prime Western blotting detection reagent) or ECL select (Amersham^TM ECL^TM select Western blotting detection reagent) depending on the abundance of the protein of interest. The blots were imaged using the Bio-Rad ChemiDoc^TM MP imaging system (Bio-Rad Laboratories, Hercules, CA, USA). All the primary and secondary antibodies used in this study were purchased from Cell Signaling Technology (Danvers, MA, USA)."}, "[7]": {"system": "Aurora A kinase signalling pathway proteins in HL-60 cells", "experiment": "Western blotting, HL-60 time course and combination", "format": "cell-based, human", "conditions": "10 µM, time course", "procedure": "as §2"}, "[8]": {"target": "Aurora A", "parameters": "method as in PMID 36297298", "conditions": "apparent Ki from IC50 and Km (ATP), cited from earlier work"}},
  "note": "Like-named read-outs stand apart in the source and are kept apart here.",
  "data": [
    {"compound": "Cc1cc(/C=C/C#N)cc(C)c1Nc1ccnc(Nc2ccc(C#N)cc2)n1", "note": "[rilpivirine, (E)-4-((4-((4-(2-cyanoethenyl)-2,6-dimethylphenyl)amino)pyrimidin-2-yl)amino)benzonitrile]", "values": [
      {"measurement": "apoptotic cells (early and late apoptosis)", "setting": "[1]; 5 µM", "value": 20.68, "unit": "%"},
      {"measurement": "apoptotic cells (early and late apoptosis)", "setting": "[1]; 10 µM", "value": 29.58, "unit": "%"},
      {"measurement": "apoptotic cells (early and late apoptosis)", "setting": "[1]; 20 µM", "value": 39.47, "unit": "%"},
      {"measurement": "apoptotic cells (early and late apoptosis)", "setting": "[2]; 5 µM", "value": 6.94, "unit": "%"},
      {"measurement": "apoptotic cells (early and late apoptosis)", "setting": "[2]; 10 µM", "value": 48.73, "unit": "%"},
      {"measurement": "apoptotic cells (early and late apoptosis)", "setting": "[2]; 20 µM", "value": 67.32, "unit": "%"},
      {"measurement": "apoptotic cells (early and late apoptosis)", "setting": "[3]; 5 µM", "value": 15.06, "unit": "%"},
      {"measurement": "apoptotic cells (early and late apoptosis)", "setting": "[3]; 10 µM", "value": 31.88, "unit": "%"},
      {"measurement": "apoptotic cells (early and late apoptosis)", "setting": "[3]; 20 µM", "value": 38.21, "unit": "%"},
      {"measurement": "apoptotic cells (early and late apoptosis)", "setting": "[4]; 5 µM", "value": 31.62, "unit": "%"},
      {"measurement": "apoptotic cells (early and late apoptosis)", "setting": "[4]; 10 µM", "value": 87.04, "unit": "%"},
      {"measurement": "apoptotic cells (early and late apoptosis)", "setting": "[4]; 20 µM", "value": 98.9, "unit": "%"},
      {"measurement": "apoptosis induction", "setting": "[5]", "value": "induced significant apoptosis"},
      {"measurement": "CDK1 level", "setting": "[6]", "value": "reduced"},
      {"measurement": "Cdc25C (Ser198) phosphorylation", "setting": "[6]", "value": "inhibited"},
      {"measurement": "PARP and caspase 3 cleavage", "setting": "[6]", "value": "increased"},
      {"measurement": "Plk1 (Thr210) phosphorylation", "setting": "[6]", "value": "inhibited"},
      {"measurement": "anti-apoptotic protein Mcl-1", "setting": "[6]", "value": "down-regulation"},
      {"measurement": "cyclin B1 level", "setting": "[6]", "value": "reduced"},
      {"measurement": "phospho-Histone H3 (Ser10)", "setting": "[6]", "value": "induced"},
      {"measurement": "phosphorylation of CENP (Ser7)", "setting": "[6]", "value": "inhibited"},
      {"measurement": "total Aurora A", "setting": "[6]", "value": "without affecting"},
      {"measurement": "auto-phosphorylation of Aurora A at Thr288", "setting": "[6]; concentration-dependent", "value": "suppressed"},
      {"measurement": "time from which PARP cleavage was detected", "setting": "[7]", "value": "≥ 12", "unit": "h"},
      {"measurement": "time of maximum induction of phospho-Histone H3 (Ser10)", "setting": "[7]", "value": 18, "unit": "h"},
      {"measurement": "time until inhibition of Aurora-A autophosphorylation was evident", "setting": "[7]", "value": "≤ 6", "unit": "h"},
      {"measurement": "Ki", "setting": "[8]", "value": "~116", "unit": "nM"},
      {"measurement": "Ki", "setting": "[8]; listed as Rilpivirine", "value": 120, "unit": "nM"}
    ]}
  ]
}
